{
  "source": "patent US20260015352A1",
  "about": "“METHYLTRANSFERASE INHIBITOR AND USE THEREOF” (CYTOSINLAB THERAPEUTICS CO., LTD., priority 2022, published 2026)",
  "data": [
    {"test_system": "G401 cells", "assay": "G401 ELISA test", "assay_type": "cell-based", "details": "Homo sapiens, G-401; G401 cells treated with compounds for 72 hours; ELISA detecting K27 and H3; read-out: G401_ELISA IC50", "description": "• Plate Reader: Envision (Perkinelmner); plate shaker: IKA MTS 2/4; plate Washer: BioTek microplate wisher 405 select; Cell counter: Counterstar (Ruiyu-biotech); Cell culture incubator: MCO-15AC (ThermoFisher); Pipette: BioHit Multichannel. Pipette: 0.2-10 μL, 10-300 μL, 50-1200 μL; Centrifuge: Thermo Centrifuge ST 40R; Pure water system: Millipore Milli-Q Reference system; Refrigerator: Haier −80 degree, −20 degree, and 4-degree refrigerators; cell cryopreservation box: Mr. Frosty™ Gradient Cooling Box Cat #5100-0001\n• McCoys 5A (Modified) culture medium (ATCC); FBS (Gibco); 0.25% Trypsin/EDTA (Gibco); PBS (Hyclone); Penicillin/Streptomycin(100×) (Gibco); DMSO (Sigma); 384 cell culture plate (Corning); 384 detection plate (Greiner); 96 well plate (compound dilution) (Haimen, Qunchao); T75 Cell Culture Bottle (Corning)\nG401 cells were seeded in a 384-well cell culture plate and incubated overnight at 37° C. in a 5% CO2 cell culture incubator, after which the cells were treated with compounds of different concentrations for 72 hours. The 384-well cell culture plate was taken out and upside down in a centrifuge to centrifugeat 300 rpm for 1 minute. After centrifugation, the 384-well cell culture plate was washed twice with PBS, added with lysis solution and lysed for 60 minutes. Then neutralization buffer was added for mixing and incubation was continued for 30 minutes. 20 ul (for detecting K27) and 10 ul (for detecting H3) of cell lysate were extracted from the 384-well cell culture plate and transferred to a 384 ELISA detection plate and incubate overnight at 4° C. The next day, the 384 ELISA plate was taken out and washed 5 times with TBST in a microplate washer. Then, the plate was added with a blocking solution and sealed at room temperature for 1 hour. The blocking solution was discarded and the primary antibody was added and then the plate was incubated at room temperature for 1 hour. After incubation, the plate was washed with TBST 5 times in a microplate washer, then added with secondary antibody and incubated at room temperature for 1 hour. After incubation, the plate was washed with TBST 5 times in a microplate washer, and finally added with color developer for color development. The plate was read with Envision plate reader. The obtained data was converted into inhibition rate using the following calculation method: % Inhibition rate=100−100*(compound absorbance−positive control absorbance)/(negative control absorbance−positive control absorbance), and then the inhibition rate data was subjected to curve fitting using the “logarithmic (inhibitor) and reaction-variable slope (four parameters)” model in GraphPad Prism 5 software.\nThe inhibition rate of the compound was calculated as follows: […]\nThe compounds of the present invention were tested according to the above experimental method, and some results were shown in Table 3. The test results were classified by A, B, and C, wherein A represents IC50≤0.1 uM; B represents 0.1 uM<IC50≤1 uM; C represents IC50>1 uM", "units": {"IC50": "µM"}, "values": [
      {"smiles": "COc1nccc2ccc(Nc3ccc(CNc4ncc(CC(=O)NC5COC5)cn4)cc3)nc12", "note": "[PA001]", "IC50": "≤ 0.1"},
      {"smiles": "COc1nccc2ccc(Nc3ccc(CNc4ncc([C@H](C)C(=O)NC5COC5)cn4)cc3)nc12", "note": "(single isomer, unassigned) [PA042, 2-[2-[[4-[(8-methoxy-1,7-naphthyridin-2-yl)amino]phenyl]methylamino]pyrimidin-5-yl]-N-(oxetan-3-yl) propanamide]", "IC50": "≤ 0.1"},
      {"smiles": "Cc1ccc2ccc(Nc3ccc([C@H](C)Nc4ncc(CNC5CS(=O)(=O)C5)cn4)cc3F)nc2c1Cl", "note": "[PA167, (S)-3-(2-(1-(4-(8-chloro-7-methylquinolin-2-amino)-3-fluorophenyl)ethylamino)pyrimidin-5-ylmethylamino)thietan-1,1-dione]", "IC50": "≤ 0.1"},
      {"smiles": "COc1nccc2ccc(Nc3ccc(CNc4ncc(CNCC5CCOC5)cn4)cc3F)nc12", "note": "(stereo not shown) [PA220]", "IC50": "0.1 to 1"},
      {"smiles": "COc1nccc2ccc(Nc3ccc(CNc4ncc(CC(=O)N5CCC(O)CC5)cn4)cc3F)nc12", "note": "[PA230]", "IC50": "0.1 to 1"},
      {"smiles": "COc1nccc2ccc(Nc3ccc(CNc4ncc(CNC5COC5)cn4)cc3)nc12", "note": "[PA154]", "IC50": "0.1 to 1"},
      {"smiles": "COc1nccc2ccc(Nc3ccc([C@H](C)Nc4ncc(C(C)C(=O)NC5COC5)cn4)cc3F)nc12", "note": "(stereo partly shown) [PA190]", "IC50": "≤ 0.1"},
      {"smiles": "CC(C(=O)N(CCC#N)CCC#N)c1cnc(N[C@@H](C)C23CCC(Nc4ccc5ccnc(Cl)c5n4)(CC2)CC3)nc1", "note": "(stereo partly shown) [PA202]", "IC50": "≤ 0.1"},
      {"smiles": "COc1nccc2ccc(Nc3ccc([C@H](C)Nc4ncc(CN5CCS(=O)(=O)CC5)cn4)cc3F)nc12", "note": "[PA194]", "IC50": "≤ 0.1"},
      {"smiles": "COc1nccc2ccc(Nc3ccc([C@H](C)Nc4ncc(CC5CCS(=O)(=O)CC5)cn4)cc3F)nc12", "note": "[PA195]", "IC50": "≤ 0.1"},
      {"smiles": "COc1nccc2ccc(Nc3ccc([C@H](C)Nc4ncc(CC(=O)NC5CCCC5OC)cn4)cc3F)nc12", "note": "(stereo partly shown) [PA222]", "IC50": "0.1 to 1"},
      {"smiles": "COc1nccc2ccc(Nc3ccc(CNc4ncc(CC(=O)NCCO)cn4)cc3)nc12", "note": "[PA151]", "IC50": "> 1"},
      {"smiles": "CNc1nccc2ccc(Nc3ccc(CNc4ncc(CC(=O)NC5COC5)cn4)cc3)nc12", "note": "[PA068]", "IC50": "0.1 to 1"},
      {"smiles": "O=C(Cc1cnc(NCc2ccc(Nc3ccc4cccnc4n3)cc2)nc1)NC1COC1", "note": "[PA051]", "IC50": "> 1"},
      {"smiles": "COc1nccc2ccc(Nc3ccc(CNc4ncc(NCc5cnoc5)cn4)cc3F)nc12", "note": "[PA208]", "IC50": "0.1 to 1"},
      {"smiles": "COc1nccc2ccc(Nc3ccc(C(CO)Nc4ncc(CC(=O)NC5COC5)cn4)cc3F)nc12", "note": "(stereo not shown) [PA236]", "IC50": "0.1 to 1"},
      {"smiles": "COc1nccc2ccc(Nc3ccc(CNc4ccc(CC(=O)NC5COC5)nc4)cc3)nc12", "note": "[PA082]", "IC50": "> 1"},
      {"smiles": "COc1nccc2ccc(Nc3ccc(CNc4ncc(CC(=O)N5CCC(O)C5)cn4)cc3F)nc12", "note": "(stereo not shown) [PA232]", "IC50": "0.1 to 1"},
      {"smiles": "COc1cccc2ccc(Nc3ccc(CNc4ncc(CC(=O)NC5COC5)cn4)cc3F)nc12", "note": "[PA197]", "IC50": "≤ 0.1"},
      {"smiles": "COc1nccc2ccc(Nc3ccc([C@H](C)Nc4ncc(CC(=O)N(CCC#N)C5COC5)cn4)cc3F)nc12", "note": "[PA185]", "IC50": "≤ 0.1"},
      {"smiles": "COc1nccc2ccc(Nc3ccc([C@H](C)Nc4c(F)cc(CNC5CS(=O)(=O)C5)cc4F)cc3F)nc12", "note": "[PA241]", "IC50": "0.1 to 1"},
      {"smiles": "COc1nccc2ccc(Nc3ccc([C@H](C)Nc4ncc(CC(=O)NC5CC(F)(F)C5)cn4)cc3F)nc12", "note": "[PA216]", "IC50": "0.1 to 1"},
      {"smiles": "COc1nccc2ccc(Nc3ccc(CNc4ncc(CC(=O)N5CCC56COC6)cn4)cc3F)nc12", "note": "[PA215]", "IC50": "0.1 to 1"},
      {"smiles": "CC(C(=O)NC1COC1)c1cnc(N[C@@H](C)C23CCC(Nc4ccc5ccnc(Cl)c5n4)(CC2)CC3)nc1", "note": "(single isomer, unassigned) [PA166]", "IC50": "≤ 0.1"},
      {"smiles": "COc1nccc2ccc(Nc3ccc([C@H](C)Nc4ncc([C@H](C)C(=O)NC5COC5)cn4)cc3F)nc12", "note": "[PA186]", "IC50": "≤ 0.1"},
      {"smiles": "COc1nccc2ccc(Nc3ccc([C@H](C)Nc4ccc(CC(=O)NC5COC5)cn4)cc3F)nc12", "note": "[PA233]", "IC50": "0.1 to 1"},
      {"smiles": "COc1nccc2ccc(Nc3ccc([C@H](C)Nc4ncc(CNC5CC(F)(F)C5)cn4)cc3F)nc12", "note": "[PA201]", "IC50": "≤ 0.1"},
      {"smiles": "COc1nccc2ccc(Nc3ccc(CNc4ncc(CC(=O)NC5COC5)cn4)cn3)nc12", "note": "[PA070]", "IC50": "> 1"}
    ]}
  ]
}
